Data: patent US6214860A, “Synergistic antitumor composition containing a naphthalensulphonic acid derivative” (Pharmacia & Upjohn S.p.A., priority 1997, dated 2001)

Key:
[1] = test system: M5076 murine reticulosarcoma cells; assay: In vivo antitumor activity in mice implanted with M5076 tumor cells; set-up: species or system Mice C57BL/6; conditions: VP-16 15 mg/kg iv, days 1, 4, 7 and 11, combination: + PNU 145156E 100 mg/kg ip 2 h prior
Experimental: (§1) The combinations were assayed in vitro on M5076 murine reticulosarcoma cells and in vivo on the same tumor cells implanted intramuscularly.
The antitumor activity was calculated in terms of:
% AUC: inhibition of tumor growth
T/C %: percentage of median increase in survival time
The A.U.C. (area under the curve) of the tumor growth was calculated by using the trapezoidal method, and is referred to the measurement of tumor growth performed one week after the last treatment. The percentage of inhibition (% A.U.C.) was calculated using the following formula: [formula]
The percentage of increase in survival time (T/C% ) was calculated using the following formula: [formula]
Mice were monitored according to guidelines and sacrificed when tumor weight exceeded 10% body weight. Tumor growth delay (TGD) is the time, in days, to reach one gram of tumor weight in treated animals as compared to control animals.
Evaluation of statistical significance was performed as follows: Student's Test for cytotoxic activity, Two-Way Anova for increase in survival time (T/C %) with combined treatment in comparison to the increase exerted separately by the two drugs, Tukey Test for tumor weight reduction (AUC % inhibition) with combined treatment in comparison to the reduction exerted separately by the two drugs.
The criterion for statistical significance was the 0.01 level ( )

[2] = test system: M5076 murine reticulosarcoma cells; assay: In vitro antiproliferative activity (% cell growth vs untreated control); type: cell-based
Experimental: as §1

[3] = VP-16 15 mg/kg iv, days 1, 4, 7 and 11; combination: + PNU 145156E 100 mg/kg ip 2 h prior
Experimental: Mice C57BL/6 were implanted with M5076 murine reticulosarcoma cells. PNU 145156E was administered ip 2 h prior to cytotoxic drugs administered iv starting treatment 24 h after tumor implant. Treatments were performed at days 1, 4, 7 and 11.
The toxicological evaluation was performed in terms of body weight loss and spleen and liver reduction.

COc1cc([C@@H]2c3cc4c(cc3[C@@H](O[C@@H]3O[C@@H]5CO[C@@H](C)O[C@H]5[C@H](O)[C@H]3O)[C@H]3COC(=O)[C@H]23)OCO4)cc(OC)c1O [VP-16, etoposide]
T/C % (median increase in survival time) [1]: 130%
Tumor weight [1]: 2.86 ± 0.8 gr
A.U.C. % inhib. (inhibition of tumor growth) ([1]; one week after last treatment): 90%
TGD (tumor growth delay) ([1]; time to reach one gram): 12 days
activity at 0.004 µg/mL ([2]; Mus musculus, M5076, cytotoxic 4 ng/ml, PNU 145156E 0 ng/ml, 72 h, 37° C., read-out: % cell growth ± S.E.): 96 ± 8%
activity at 0.02 µg/mL ([2]; Mus musculus, M5076, cytotoxic 20 ng/ml, PNU 145156E 0 ng/ml, 72 h, 37° C., read-out: % cell growth ± S.E.): 77 ± 5%
activity at 0.1 µg/mL ([2]; Mus musculus, M5076, cytotoxic 100 ng/ml, PNU 145156E 0 ng/ml, 72 h, 37° C., read-out: % cell growth ± S.E.): 15 ± 7%
% cell growth ± S.E. ([2]; cytotoxic 4 ng/ml + PNU 145156E 50000 ng/ml, 72 h, 37° C.): 91 ± 2%
% cell growth ± S.E. ([2]; cytotoxic 20 ng/ml + PNU 145156E 50000 ng/ml, 72 h, 37° C.): 66 ± 8%
% cell growth ± S.E. ([2]; cytotoxic 100 ng/ml + PNU 145156E 50000 ng/ml, 72 h, 37° C.): 9 ± 4%
antiproliferative activity in the presence of PNU 145156E ([2]; in words, PNU 145156E 50000 ng/ml vs 0 ng/ml): unchanged in the presence of PNU 145156E
Toxic/total mice [3]: 0/9
